Experimental data as given in patent publication US20180098997A1, “PHARMACEUTICAL DOSES FOR A BROMODOMAIN AND EXTRATERMINAL PROTEIN (BET) INHIBITOR” (Oncoethix GmbH, priority 2015, published 2018).
Like-named read-outs stand apart in the source and are kept apart here.

Legend:
[1] = system: leukemia, diffuse large B-cell lymphoma, other lymphomas or multiple myeloma; test: Objective responses in patients; type: in vivo, human; conditions: patients receiving 10 or 20 mg per day
Source text: With regard to the compound of Formula (1), an effective dose is a dose that inhibits a protein in the bromodomain and extraterminal protein family to a sufficient degree that a desired objective response is observed. An objective response may be a complete response (all detectable tumor or blast cell has disappeared), a partial response (roughly corresponds to at least a 50% decrease in the total tumor volume or blast cell amount but with evidence of some residual disease still remaining), or a minor response (roughly means a small amount of tumor shrinkage or blast cell reduction). Thus, an objective response can include a response where blast cell amount reduction is observed, or where tumor shrinkage is observed in the patient.
(§1) Doses of the compound of Formula (1) were administered to patients having leukemia, hematologic malignancies, diffuse large B-cell lymphoma, other lymphomas or multiple myeloma, and dose limiting toxicity and objective responses were observed.
Compound of Formula (1) once-a-day doses of 10, 20, 40, 80, 120 and 160 mg and twice-a-day doses of 40 mg were administered to patients with leukemia, diffuse large B-cell lymphoma, other lymphomas or multiple myeloma. In this study, objective responses were not observed in patients receiving 10 or 20 mg per day.

[2] = Phase I dose escalation population pharmacokinetics in patients with hematologic malignancies (plasma UPLC-MS/MS, Monolix PPK model); type: in vivo, human; conditions: for CL [mean +/- SD] / V [mean +/- SD]: apparent (F set to 1); for Cmin [mean +/- SD]: predose at Day 8; for AUC(0-t): read-out: AUC0-24 hr [mean +/- SD]; for Cmax: read-out: Cmax [mean +/- SD]
Experimental: Solid dispersions were prepared using the compound of Formula (1) and hydroxylpropylmethylcellulose acetate succinate (HPMCAS) at both 25% and 50% of compound loading. Solid dispersions were prepared by a solvent evaporation method, using spray-drying followed by secondary drying in a low-temperature convection oven. Dispersions containing 10 mg, 20 mg, 40 mg, 80 mg, 120 mg and 160 mg, of the compound, were prepared into capsules and administered to patients Pharmacokinetics (PK) of the compound of Formula (1) as single agent were characterized in patients with hematologic malignancies, including a population pharmacokinetic modeling. A multicenter, dose escalation study in cohorts of 3 to 6 patients with acute leukemia or other hematologic malignancies was performed with a dose escalation step followed by expansion cohorts at the recommended dose. Patients received oral compound of Formula (1) from 10 to 160 mg according to different schedules. Schedules included once a day dosing with 21-day cycles, acute leukemia (AL); 14 days on/7 days off, hematologic malignancies (OHM). Continuous PK blood samples from 7 time points over 24 hours post-administration were collected on day 1 of cycle 1 for the first 3 patients per DL, and 5 time points over 8 hours post-administration for other patients at this DL. Residual sampling before administration on days 8, 15 and 22 was performed in all patients. Compound plasma concentrations were measured using validated ultra-performance liquid chromatography with tandem mass spectrometry detection with a concentration range 1-250 ng/mL, with a small plasma volume for analysis (50 μL). Analyses and population PK (PPK) modeling were performed with the nonlinear mixed effect modeling software program Monolix version 4.3. The following parameters were calculated: absorption constant (Ka); apparent distribution volume (V/F); apparent clearance (CL/F) and lean body mass (LBM; calculated considering patient sex, weight and height). Parameters were estimated by computing the maximum likelihood estimator without linearization using the stochastic approximation expectation maximization (SAEM) algorithm combined with a Markov Chain Monte Carlo (MCMC) procedure. The number of MCMC chains was fixed at 10 for all estimations. A constant error model was used to describe residual and Between-Subject Variability (BSV, η) were ascribed to an exponential model. In the absence of intravenous data, the initial bioavailability (F) was set to 1, meaning that clearance (CL) and volume of distribution (V) should be interpreted as the apparent clearance (CL/F) and apparent volume of distribution (V/F), respectively. Eighty-five patients enrolled and treated and randomized to six dose levels (10, 20, 40, 80, 120 and 160 mg) once-a-day and 40 mg twice-a-day. Among them, 81 patients with 630 plasma concentrations (607+23 BLQ) were evaluable for PK assessment. A 1-compartment open model adequately described the total compound concentration-time curve. […] The absorption phase was linear and Tmax was between 1 and 4 h. […] In the PPK study, the best descriptive model was obtained when LBM was considered in the analysis. A correlation between CL/F and V/F was also observed for compound. A total of 81 patients (52 male, 29 female) were evaluable for PK (40 AL patients, 41 OHM patients), with a total of […] available for analysis.

[3] = Dose limiting toxicity in patients with acute leukemia or hematologic malignancies; type: in vivo, human
Source text: Dose-limiting toxicity corresponds to side-effect toxicity such that the side-effects are severe enough to impose restrictions on, or to prevent administration of, the dose. Clinically significant toxicity includes but is not limited to intolerable levels in a patient of thrombocytopenia, neutropenia, fatigue, diarrhea, anemia, mucositis, and other side effects known to be associated with elevated levels of bromodomain and extraterminal protein inhibitors.
as §1
Compound of Formula (1) dose-limiting toxicity was evaluated in patients with acute leukemia and hematologic malignancies.

[4] = system: BET (bromodomains and extraterminal) proteins, which include BRD2, BRD3, and BRD4; conditions: U.S. 2010/0286127 A1; cited from earlier work
[5] = 10 mg QD oral, n = 8, derived from EBE
[6] = 20 mg QD oral, n = 6, derived from EBE
[7] = 40 mg BID oral, n = 13, derived from EBE
[8] = 40 mg QD oral, n = 8, derived from EBE
[9] = 80 mg QD oral, n = 11, derived from EBE
[10] = 120 mg QD oral, n = 30, derived from EBE
[11] = 160 mg QD oral, n = 5, derived from EBE
[12] = PPK structural model, 1-compartment open model, 81 patients, all dose levels

## Cc1sc2c(c1C)C(c1ccc(Cl)cc1)=N[C@@H](CC(=O)Nc1ccc(O)cc1)c1nnc(C)n1-2 [Compound of Formula (1), (S)-2-(4-(4-chlorophenyl)-2,3,9-trimethyl-6H-thieno[3,2-f][1,2,4]triazolo[4,3-a][1,4]diazepin-6-yl)-N-(4-hydroxyphenyl)acetamide]
[1]
  objective responses: not observed
[2]; [5]
  CL [mean +/- SD]: 8.53 L/h
  V [mean +/- SD]: 72.1 L
[2]; 10 mg QD oral, n = 8, observed values
  Cmin [mean +/- SD]: 22.5 ng/mL
[2]; [6]
  CL [mean +/- SD]: 7.06 L/h
  V [mean +/- SD]: 57.6 L
[2]; 20 mg QD oral, n = 6, observed values
  Cmin [mean +/- SD]: 50.5 ng/mL
[2]; [7]
  CL [mean +/- SD]: 6.57 L/h
  V [mean +/- SD]: 57.46 L
[2]; 40 mg BID oral, n = 13, observed values
  Cmin [mean +/- SD]: 351.16 ng/mL
[2]; [8]
  CL [mean +/- SD]: 7.66 L/h
  V [mean +/- SD]: 58.65 L
[2]; 40 mg QD oral, n = 8, observed values
  Cmin [mean +/- SD]: 47.7 ng/mL
[2]; [9]
  CL [mean +/- SD]: 7.83 L/h
  V [mean +/- SD]: 71.14 L
[2]; 80 mg QD oral, n = 11, observed values
  Cmin [mean +/- SD]: 113.7 ng/mL
[2]; [10]
  CL [mean +/- SD]: 7.81 L/h
  V [mean +/- SD]: 63.32 L
[2]; 120 mg QD oral, n = 30, observed values
  Cmin [mean +/- SD]: 325.4 ng/mL
[2]; [11]
  CL [mean +/- SD]: 12.10 L/h
  V [mean +/- SD]: 96.66 L
[2]; 160 mg QD oral, n = 5, observed values
  Cmin [mean +/- SD]: 215.0 ng/mL
[2]; [12]
  absorption constant (Ka): 0.74 h⁻¹
  apparent clearance (CL/F): 8.45 L/h
  apparent distribution volume (V/F): 71.7 L
[2]; both sexes, human, plasma, oral, all patients, read-out: Mean elimination half-life (converted)
  half-life: 5.8 h
[2]; both sexes, human, plasma, po, 10 mg, 10 mg QD oral, n = 8, derived from EBE
  AUC(0-t): 1190 ng·h/mL
[2]; both sexes, human, plasma, po, 20 mg, 20 mg QD oral, n = 6, derived from EBE
  AUC(0-t): 2930 ng·h/mL
[2]; both sexes, human, plasma, po, 40 mg, 40 mg BID oral, n = 13, values doubled to mimic 80 mg (2 × 40 mg)
  AUC(0-t): 13100 ng·h/mL
[2]; both sexes, human, plasma, po, 40 mg, 40 mg QD oral, n = 8, derived from EBE
  AUC(0-t): 5500 ng·h/mL
[2]; both sexes, human, plasma, po, 80 mg, 80 mg QD oral, n = 11, derived from EBE
  AUC(0-t): 12500 ng·h/mL
[2]; both sexes, human, plasma, po, 120 mg, 120 mg QD oral, n = 30, derived from EBE
  AUC(0-t): 17200 ng·h/mL
[2]; both sexes, human, plasma, po, 160 mg, 160 mg QD oral, n = 5, derived from EBE
  AUC(0-t): 13900 ng·h/mL
[2]; both sexes, human, plasma, 40 mg BID oral, n = 13, derived from EBE
  Cmax: 550 ng/mL
[2]; both sexes, human, plasma, 80 mg QD oral, n = 11, derived from EBE
  Cmax: 1150 ng/mL
[2]; both sexes, human, plasma, 120 mg QD oral, n = 30, derived from EBE
  Cmax: 1470 ng/mL
[2]; both sexes, human, plasma, 160 mg QD oral, n = 5, derived from EBE
  Cmax: 1290 ng/mL
[2]; both sexes, human, plasma, oral, all dose levels
  Tmax: 1 to 4 h
[2]; human, plasma, po, 10 mg, 10 mg QD oral, n = 8, derived from EBE, read-out: T1/2 [mean +/- SD] (converted)
  half-life: 5.84 h
[2]; human, plasma, po, 20 mg, 20 mg QD oral, n = 6, derived from EBE, read-out: T1/2 [mean +/- SD] (converted)
  half-life: 5.63 h
[2]; human, plasma, po, 40 mg, 40 mg BID oral, n = 13, derived from EBE, read-out: T1/2 [mean +/- SD] (converted)
  half-life: 6.22 h
[2]; human, plasma, po, 40 mg, 40 mg QD oral, n = 8, derived from EBE, read-out: T1/2 [mean +/- SD] (converted)
  half-life: 5.33 h
[2]; human, plasma, po, 80 mg, 80 mg QD oral, n = 11, derived from EBE, read-out: T1/2 [mean +/- SD] (converted)
  half-life: 5.51 h
[2]; human, plasma, po, 120 mg, 120 mg QD oral, n = 30, derived from EBE, read-out: T1/2 [mean +/- SD] (converted)
  half-life: 5.91 h
[2]; human, plasma, po, 160 mg, 160 mg QD oral, n = 5, derived from EBE, read-out: T1/2 [mean +/- SD] (converted)
  half-life: 5.48 h
[2]; human, plasma, 10 mg QD oral, n = 8, derived from EBE
  Cmax: 131 ng/mL
[2]; human, plasma, 20 mg QD oral, n = 6, derived from EBE
  Cmax: 275 ng/mL
[2]; human, plasma, 40 mg QD oral, n = 8, derived from EBE
  Cmax: 627 ng/mL
[3]; Acute Leukemia, 20 mg QD, 6 patients
  Dose Limiting Toxicity, observed toxicity: 0 patients
[3]; Acute Leukemia, 40 mg BID, 6 patients
  Dose Limiting Toxicity, observed toxicity: 0 patients
[3]; Acute Leukemia, 40 mg QD, 4 patients
  Dose Limiting Toxicity, observed toxicity: 0 patients
[3]; Acute Leukemia, 80 mg QD, 4 patients
  Dose Limiting Toxicity, observed toxicity: 0 patients
[3]; Acute Leukemia, 120 mg QD, 11 patients
  Dose Limiting Toxicity, observed toxicity: 0 patients
[3]; Acute Leukemia, 160 mg QD, 5 patients (diarrhea and fatigue/anorexia)
  Dose Limiting Toxicity, observed toxicity: 2 patients
[3]; Older Adult Hematologic Malignancies, 20 mg QD, 6 patients
  Dose Limiting Toxicity, observed toxicity: 0 patients
[3]; Older Adult Hematologic Malignancies, 40 mg BID, 6 patients (thrombocytopenia)
  Dose Limiting Toxicity, observed toxicity: 5 patients
[3]; Older Adult Hematologic Malignancies, 40 mg QD, 3 patients
  Dose Limiting Toxicity, observed toxicity: 0 patients
[3]; Older Adult Hematologic Malignancies, 80 mg QD, 7 patients (thrombocytopenia)
  Dose Limiting Toxicity, observed toxicity: 2 patients
[3]; Older Adult Hematologic Malignancies, 120 mg QD, 18 patients (thrombocytopenia, hypo Na, neutropenia, fatigue, diarrhea, mucositis)
  Dose Limiting Toxicity, observed toxicity: 10 patients
[4]
  inhibition of binding of acetylated histone H4 to BET proteins: inhibit the binding
